Data published in ChEMBL document CHEMBL4507283, “Data for DCP probe BI-1935” (2021).
Calls of active or inactive are those of the source. No cut-off for these calls is given here.

Tests used:
[1] = molecular target: T1, Bifunctional epoxide hydrolase 2 (Homo sapiens, UniProt P34913); assay: Cellular assay
T1 sequence (P34913 whole entry): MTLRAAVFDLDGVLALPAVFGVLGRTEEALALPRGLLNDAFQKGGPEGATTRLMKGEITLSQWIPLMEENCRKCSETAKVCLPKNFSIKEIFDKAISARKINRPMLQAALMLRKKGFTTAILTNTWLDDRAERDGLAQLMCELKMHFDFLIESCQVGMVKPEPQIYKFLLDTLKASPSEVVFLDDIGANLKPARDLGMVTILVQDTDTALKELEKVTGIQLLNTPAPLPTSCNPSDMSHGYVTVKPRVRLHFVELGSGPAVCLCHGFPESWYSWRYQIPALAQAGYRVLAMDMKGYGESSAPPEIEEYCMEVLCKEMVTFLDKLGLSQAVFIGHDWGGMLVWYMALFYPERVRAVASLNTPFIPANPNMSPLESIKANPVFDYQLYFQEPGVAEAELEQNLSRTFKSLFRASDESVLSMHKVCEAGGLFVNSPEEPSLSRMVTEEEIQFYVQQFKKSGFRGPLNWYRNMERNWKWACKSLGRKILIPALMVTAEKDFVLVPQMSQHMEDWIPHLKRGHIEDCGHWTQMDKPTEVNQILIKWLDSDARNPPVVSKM

[2] = molecular target: ALK tyrosine kinase receptor (Homo sapiens) (UniProt Q9UM73); settings: Compound concentration 1000.0 nM
[3] = molecular target: BMP-2-inducible protein kinase (Homo sapiens) (UniProt Q9NSY1); settings: Compound concentration 1000.0 nM
[4] = molecular target: Bone morphogenetic protein receptor type-1B (Homo sapiens) (UniProt O00238); settings: Compound concentration 1000.0 nM
[5] = molecular target: Serine/threonine-protein kinase B-raf (Homo sapiens) (UniProt P15056); settings: Compound concentration 1000.0 nM
[6] = molecular target: Tyrosine-protein kinase BTK (Homo sapiens) (UniProt Q06187); settings: Compound concentration 1000.0 nM
[7] = molecular target: Mitotic checkpoint serine/threonine-protein kinase BUB1 (Homo sapiens) (UniProt O43683); settings: Compound concentration 1000.0 nM
[8] = molecular target: Cyclin-dependent kinase 3 (Homo sapiens) (UniProt Q00526); settings: Compound concentration 1000.0 nM
[9] = molecular target: Cyclin-dependent kinase 4 (Homo sapiens) (UniProt P11802); settings: Compound concentration 1000.0 nM
[10] = molecular target: Dual specificity protein kinase CLK3 (Homo sapiens) (UniProt P49761); settings: Compound concentration 1000.0 nM
[11] = molecular target: Megakaryocyte-associated tyrosine-protein kinase (Homo sapiens) (UniProt P42679); settings: Compound concentration 1000.0 nM
[12] = system: Epidermal growth factor receptor (Homo sapiens), P00533 [UNDEFINED MUTATION]; settings: Compound concentration 1000.0 nM
[13] = system: Epidermal growth factor receptor (Homo sapiens), P00533 [L861Q]; settings: Compound concentration 1000.0 nM
[14] = molecular target: Eukaryotic translation initiation factor 2-alpha kinase 1 (Homo sapiens) (UniProt Q9BQI3); settings: Compound concentration 1000.0 nM
[15] = system: Mast/stem cell growth factor receptor Kit (Homo sapiens), P10721 [L576P]; settings: Compound concentration 1000.0 nM
[16] = system: Mast/stem cell growth factor receptor Kit (Homo sapiens), P10721 [V559D,T670I]; settings: Compound concentration 1000.0 nM
[17] = molecular target: Serine/threonine-protein kinase 10 (Homo sapiens) (UniProt O94804); settings: Compound concentration 1000.0 nM
[18] = molecular target: Mitogen-activated protein kinase kinase kinase kinase 5 (Homo sapiens) (UniProt Q9Y4K4); settings: Compound concentration 1000.0 nM
[19] = molecular target: Serine/threonine-protein kinase MRCK alpha (Homo sapiens) (UniProt Q5VT25); settings: Compound concentration 1000.0 nM
[20] = molecular target: Serine/threonine-protein kinase 24 (Homo sapiens) (UniProt Q9Y6E0); settings: Compound concentration 1000.0 nM
[21] = molecular target: Serine/threonine-protein kinase PAK 3 (Homo sapiens) (UniProt O75914); settings: Compound concentration 1000.0 nM
[22] = molecular target: Cyclin-dependent kinase 17 (Homo sapiens) (UniProt Q00537); settings: Compound concentration 1000.0 nM
[23] = molecular target: Calcium-dependent protein kinase 1 (Plasmodium falciparum) (UniProt P62344); settings: Compound concentration 1000.0 nM
[24] = molecular target: Phosphorylase b kinase gamma catalytic chain, skeletal muscle/heart isoform (Homo sapiens) (UniProt Q16816); settings: Compound concentration 1000.0 nM
[25] = system: Phosphatidylinositol 4,5-bisphosphate 3-kinase catalytic subunit alpha isoform (Homo sapiens), P42336 [C420R]; settings: Compound concentration 1000.0 nM
[26] = system: Phosphatidylinositol 4,5-bisphosphate 3-kinase catalytic subunit alpha isoform (Homo sapiens), P42336 [E545K]; settings: Compound concentration 1000.0 nM
[27] = molecular target: Phosphatidylinositol 4,5-bisphosphate 3-kinase catalytic subunit gamma isoform (Homo sapiens) (UniProt P48736); settings: Compound concentration 1000.0 nM
[28] = molecular target: Phosphatidylinositol 5-phosphate 4-kinase type-2 beta (Homo sapiens) (UniProt P78356); settings: Compound concentration 1000.0 nM
[29] = molecular target: Receptor-interacting serine/threonine-protein kinase 1 (Homo sapiens) (UniProt Q13546); settings: Compound concentration 1000.0 nM
[30] = molecular target: Ribosomal protein S6 kinase alpha-3 (Homo sapiens) (UniProt P51812); settings: Compound concentration 1000.0 nM
[31] = molecular target: Ribosomal protein S6 kinase beta-1 (Homo sapiens) (UniProt P23443); settings: Compound concentration 1000.0 nM
[32] = molecular target: Serine/threonine-protein kinase 35 (Homo sapiens) (UniProt Q8TDR2); settings: Compound concentration 1000.0 nM
[33] = molecular target: Serine/threonine-protein kinase TAO3 (Homo sapiens) (UniProt Q9H2K8); settings: Compound concentration 1000.0 nM
[34] = molecular target: TGF-beta receptor type-2 (Homo sapiens) (UniProt P37173); settings: Compound concentration 1000.0 nM
[35] = molecular target: Dual specificity protein kinase TTK (Homo sapiens) (UniProt P33981); settings: Compound concentration 1000.0 nM
[36] = molecular target: 5-hydroxytryptamine receptor 6 (Homo sapiens) (UniProt P50406); settings: Compound concentration 10.0 uM
[37] = molecular target: Sigma intracellular receptor 2 (Homo sapiens) (UniProt Q5BJF2); settings: Compound concentration 10.0 uM
Chain of Sigma intracellular receptor 2 (Homo sapiens) (Q5BJF2 whole entry): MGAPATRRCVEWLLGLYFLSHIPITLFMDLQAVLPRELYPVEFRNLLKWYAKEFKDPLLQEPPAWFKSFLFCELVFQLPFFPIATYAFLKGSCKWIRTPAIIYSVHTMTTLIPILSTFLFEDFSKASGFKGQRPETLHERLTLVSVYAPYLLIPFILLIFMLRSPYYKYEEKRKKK

Chain of Phosphatidylinositol 4,5-bisphosphate 3-kinase catalytic subunit alpha isoform (Homo sapiens), P42336 [E545K] (P42336 whole entry E545K, canonical isoform): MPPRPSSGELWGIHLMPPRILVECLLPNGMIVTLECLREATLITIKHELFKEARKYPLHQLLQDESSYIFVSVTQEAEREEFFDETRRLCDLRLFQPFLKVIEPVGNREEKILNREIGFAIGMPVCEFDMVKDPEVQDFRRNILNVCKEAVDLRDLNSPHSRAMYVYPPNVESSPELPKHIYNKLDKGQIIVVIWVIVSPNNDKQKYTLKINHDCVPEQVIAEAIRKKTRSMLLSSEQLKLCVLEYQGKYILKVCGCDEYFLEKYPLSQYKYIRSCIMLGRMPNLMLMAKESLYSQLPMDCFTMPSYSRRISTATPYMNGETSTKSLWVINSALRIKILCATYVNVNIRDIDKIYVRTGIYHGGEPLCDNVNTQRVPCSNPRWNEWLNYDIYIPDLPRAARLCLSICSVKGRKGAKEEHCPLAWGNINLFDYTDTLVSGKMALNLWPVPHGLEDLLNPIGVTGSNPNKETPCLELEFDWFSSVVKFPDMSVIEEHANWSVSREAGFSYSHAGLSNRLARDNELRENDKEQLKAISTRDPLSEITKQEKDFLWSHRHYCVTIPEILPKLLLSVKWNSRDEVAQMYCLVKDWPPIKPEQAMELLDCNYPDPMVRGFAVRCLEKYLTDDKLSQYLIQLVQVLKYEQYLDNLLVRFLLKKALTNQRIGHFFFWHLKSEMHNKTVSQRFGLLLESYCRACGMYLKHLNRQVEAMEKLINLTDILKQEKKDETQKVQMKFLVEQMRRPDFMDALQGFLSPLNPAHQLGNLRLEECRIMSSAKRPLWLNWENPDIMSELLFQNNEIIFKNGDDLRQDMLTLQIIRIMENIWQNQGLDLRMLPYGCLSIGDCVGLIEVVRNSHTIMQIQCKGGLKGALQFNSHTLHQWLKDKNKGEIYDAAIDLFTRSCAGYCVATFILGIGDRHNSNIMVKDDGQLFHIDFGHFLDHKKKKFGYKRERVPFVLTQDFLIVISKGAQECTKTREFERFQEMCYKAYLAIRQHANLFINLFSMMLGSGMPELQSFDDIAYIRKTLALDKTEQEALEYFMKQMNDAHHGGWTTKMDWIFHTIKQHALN
Chain of Bone morphogenetic protein receptor type-1B (Homo sapiens) (O00238 whole entry): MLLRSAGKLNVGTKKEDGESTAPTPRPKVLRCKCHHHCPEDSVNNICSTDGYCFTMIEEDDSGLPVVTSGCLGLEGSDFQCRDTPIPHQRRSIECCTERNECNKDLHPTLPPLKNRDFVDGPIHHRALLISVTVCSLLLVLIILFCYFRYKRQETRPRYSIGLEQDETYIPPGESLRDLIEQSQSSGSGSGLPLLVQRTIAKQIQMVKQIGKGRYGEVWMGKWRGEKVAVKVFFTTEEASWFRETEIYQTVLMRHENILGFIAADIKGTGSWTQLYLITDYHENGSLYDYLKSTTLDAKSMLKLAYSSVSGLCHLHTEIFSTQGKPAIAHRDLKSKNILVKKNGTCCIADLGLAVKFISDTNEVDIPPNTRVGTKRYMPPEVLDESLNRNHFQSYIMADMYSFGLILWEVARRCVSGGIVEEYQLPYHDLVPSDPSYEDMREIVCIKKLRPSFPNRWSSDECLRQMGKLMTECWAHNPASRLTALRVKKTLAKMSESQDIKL
Chain of Dual specificity protein kinase CLK3 (Homo sapiens) (P49761 whole entry, looked up): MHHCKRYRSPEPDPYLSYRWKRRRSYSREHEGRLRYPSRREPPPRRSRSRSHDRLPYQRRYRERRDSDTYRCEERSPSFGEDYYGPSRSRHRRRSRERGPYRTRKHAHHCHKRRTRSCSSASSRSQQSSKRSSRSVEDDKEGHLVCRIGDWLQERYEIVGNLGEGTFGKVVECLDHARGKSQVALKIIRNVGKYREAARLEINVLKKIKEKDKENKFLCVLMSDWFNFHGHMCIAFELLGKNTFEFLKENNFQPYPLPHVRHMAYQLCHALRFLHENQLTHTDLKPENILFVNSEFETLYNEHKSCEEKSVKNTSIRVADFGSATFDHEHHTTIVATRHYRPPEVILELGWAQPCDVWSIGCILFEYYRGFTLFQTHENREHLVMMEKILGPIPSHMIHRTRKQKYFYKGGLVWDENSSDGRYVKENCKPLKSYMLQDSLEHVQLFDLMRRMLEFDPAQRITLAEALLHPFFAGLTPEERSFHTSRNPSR
Chain of Mast/stem cell growth factor receptor Kit (Homo sapiens), P10721 [V559D,T670I] (P10721 whole entry V559D/T670I): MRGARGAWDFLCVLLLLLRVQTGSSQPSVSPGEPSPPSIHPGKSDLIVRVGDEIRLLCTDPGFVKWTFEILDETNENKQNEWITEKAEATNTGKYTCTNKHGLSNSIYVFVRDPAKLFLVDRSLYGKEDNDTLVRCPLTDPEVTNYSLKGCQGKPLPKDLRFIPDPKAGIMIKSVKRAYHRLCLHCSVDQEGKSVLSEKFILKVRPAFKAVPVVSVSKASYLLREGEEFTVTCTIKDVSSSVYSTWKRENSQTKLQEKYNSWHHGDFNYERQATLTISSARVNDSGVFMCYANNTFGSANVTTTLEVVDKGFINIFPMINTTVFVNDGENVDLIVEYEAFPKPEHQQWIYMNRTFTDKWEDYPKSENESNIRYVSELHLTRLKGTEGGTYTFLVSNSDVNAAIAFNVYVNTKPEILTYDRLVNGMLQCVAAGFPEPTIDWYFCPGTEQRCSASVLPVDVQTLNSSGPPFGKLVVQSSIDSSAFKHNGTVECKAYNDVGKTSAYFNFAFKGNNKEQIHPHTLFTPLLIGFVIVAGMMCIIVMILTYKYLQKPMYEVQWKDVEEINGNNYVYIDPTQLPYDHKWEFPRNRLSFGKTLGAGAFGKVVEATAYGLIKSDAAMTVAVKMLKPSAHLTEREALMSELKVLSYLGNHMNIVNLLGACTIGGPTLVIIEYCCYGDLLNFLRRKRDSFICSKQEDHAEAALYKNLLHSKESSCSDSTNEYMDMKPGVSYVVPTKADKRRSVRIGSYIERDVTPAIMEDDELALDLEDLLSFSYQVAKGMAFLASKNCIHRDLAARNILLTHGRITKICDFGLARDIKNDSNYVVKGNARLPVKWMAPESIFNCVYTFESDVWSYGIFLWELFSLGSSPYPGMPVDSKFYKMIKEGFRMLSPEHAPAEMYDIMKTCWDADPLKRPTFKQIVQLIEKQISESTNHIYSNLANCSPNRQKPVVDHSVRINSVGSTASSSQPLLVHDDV
Chain of Ribosomal protein S6 kinase alpha-3 (Homo sapiens) (P51812 whole entry): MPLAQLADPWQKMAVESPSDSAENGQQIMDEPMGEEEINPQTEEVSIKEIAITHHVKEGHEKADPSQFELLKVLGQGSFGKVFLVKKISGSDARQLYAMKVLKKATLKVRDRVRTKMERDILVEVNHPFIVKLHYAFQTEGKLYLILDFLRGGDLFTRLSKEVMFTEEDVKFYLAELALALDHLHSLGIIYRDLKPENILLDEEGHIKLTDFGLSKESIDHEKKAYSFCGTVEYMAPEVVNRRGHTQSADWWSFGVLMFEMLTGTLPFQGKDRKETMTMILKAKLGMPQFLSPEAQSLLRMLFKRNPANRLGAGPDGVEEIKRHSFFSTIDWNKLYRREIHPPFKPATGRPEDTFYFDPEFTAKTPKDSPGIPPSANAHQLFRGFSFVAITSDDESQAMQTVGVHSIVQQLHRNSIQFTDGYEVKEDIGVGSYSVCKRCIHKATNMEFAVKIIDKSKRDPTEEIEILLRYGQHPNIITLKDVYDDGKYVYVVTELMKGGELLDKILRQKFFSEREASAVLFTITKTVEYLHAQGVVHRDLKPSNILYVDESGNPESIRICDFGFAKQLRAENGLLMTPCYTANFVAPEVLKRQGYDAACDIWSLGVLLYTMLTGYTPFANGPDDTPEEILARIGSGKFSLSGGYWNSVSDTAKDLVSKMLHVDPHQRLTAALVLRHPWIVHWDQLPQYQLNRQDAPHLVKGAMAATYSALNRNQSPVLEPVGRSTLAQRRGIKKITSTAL
Chain of Serine/threonine-protein kinase PAK 3 (Homo sapiens) (O75914 whole entry, looked up): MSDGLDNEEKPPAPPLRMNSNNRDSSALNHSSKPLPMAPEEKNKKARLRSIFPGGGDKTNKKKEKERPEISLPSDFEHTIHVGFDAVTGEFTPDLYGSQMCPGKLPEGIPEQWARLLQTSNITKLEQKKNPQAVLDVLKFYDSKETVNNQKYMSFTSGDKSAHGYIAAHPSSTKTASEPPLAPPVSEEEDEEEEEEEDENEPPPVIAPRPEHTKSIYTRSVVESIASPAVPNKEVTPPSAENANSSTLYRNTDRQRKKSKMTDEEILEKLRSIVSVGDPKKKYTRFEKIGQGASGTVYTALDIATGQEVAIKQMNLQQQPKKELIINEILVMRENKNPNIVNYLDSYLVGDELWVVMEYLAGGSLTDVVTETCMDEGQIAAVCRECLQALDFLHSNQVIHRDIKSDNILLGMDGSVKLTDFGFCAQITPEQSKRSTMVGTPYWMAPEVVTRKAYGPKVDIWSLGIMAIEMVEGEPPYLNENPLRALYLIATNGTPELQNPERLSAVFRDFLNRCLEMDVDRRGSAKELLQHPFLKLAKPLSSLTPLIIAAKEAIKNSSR
Chain of Serine/threonine-protein kinase 24 (Homo sapiens) (Q9Y6E0 whole entry, looked up): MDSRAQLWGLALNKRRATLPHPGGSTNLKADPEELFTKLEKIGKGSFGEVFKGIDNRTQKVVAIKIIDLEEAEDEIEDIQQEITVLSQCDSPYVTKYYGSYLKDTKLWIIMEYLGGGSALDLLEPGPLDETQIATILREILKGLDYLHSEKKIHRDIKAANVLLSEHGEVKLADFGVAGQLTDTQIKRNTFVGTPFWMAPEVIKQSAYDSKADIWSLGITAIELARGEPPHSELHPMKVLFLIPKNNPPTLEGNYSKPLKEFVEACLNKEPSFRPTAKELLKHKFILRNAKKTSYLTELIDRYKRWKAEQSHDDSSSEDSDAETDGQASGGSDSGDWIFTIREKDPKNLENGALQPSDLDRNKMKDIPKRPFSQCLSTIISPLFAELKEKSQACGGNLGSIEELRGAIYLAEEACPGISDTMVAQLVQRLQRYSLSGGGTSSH

Question: `CCOCCn1cc(C(=O)Nc2ccc(-n3nc(-c4cccnc4)cc3C(F)(F)F)cn2)ccc1=O` [BI 1935] was tested. Which IC50 [1] did it give?
Answer: Its IC50 is < 1 nM (active).

Question: What about the residual activity [2] of the same compound?
Answer: The residual activity was 79%.

Question: And the residual activity [3]?
Answer: The residual activity was 95%.

Question: And the residual activity [4]?
Answer: Its residual activity is 71%.

Question: And the residual activity [5]?
Answer: Its residual activity is 95%.

Question: And the residual activity [6]?
Answer: Its residual activity is 79%.

Question: And the residual activity [7]?
Answer: Its residual activity is 79%.

Question: What about the residual activity [8] of the same compound?
Answer: Its residual activity is 100%.

Question: And the residual activity [9]?
Answer: The residual activity was 81%.

Question: What about the residual activity [10] of the same compound?
Answer: The residual activity was 100%.

Question: What about the residual activity [11] of the same compound?
Answer: The residual activity was 90%.

Question: And the residual activity [12]?
Answer: Its residual activity is 98%.

Question: And the residual activity [13]?
Answer: The residual activity was 100%.

Question: What about the residual activity [14] of the same compound?
Answer: The residual activity was 84%.

Question: What about the residual activity [15] of the same compound?
Answer: The residual activity was 94%.

Question: What about the residual activity [16] of the same compound?
Answer: The residual activity was 100%.

Question: And the residual activity [17]?
Answer: Its residual activity is 100%.

Question: And the residual activity [18]?
Answer: The residual activity was 95%.

Question: And the residual activity [19]?
Answer: Its residual activity is 100%.

Question: What about the residual activity [20] of the same compound?
Answer: Its residual activity is 100%.

Question: And the residual activity [21]?
Answer: The residual activity was 100%.

Question: And the residual activity [22]?
Answer: The residual activity was 96%.

Question: And the residual activity [23]?
Answer: Its residual activity is 71%.

Question: And the residual activity [24]?
Answer: Its residual activity is 100%.

Question: What about the residual activity [25] of the same compound?
Answer: Its residual activity is 93%.

Question: What about the residual activity [26] of the same compound?
Answer: Its residual activity is 96%.

Question: And the residual activity [27]?
Answer: Its residual activity is 100%.

Question: What about the residual activity [28] of the same compound?
Answer: The residual activity was 68%.

Question: What about the residual activity [29] of the same compound?
Answer: The residual activity was 88%.

Question: What about the residual activity [30] of the same compound?
Answer: The residual activity was 87%.

Question: What about the residual activity [31] of the same compound?
Answer: The residual activity was 97%.

Question: What about the residual activity [32] of the same compound?
Answer: The residual activity was 94%.

Question: What about the residual activity [33] of the same compound?
Answer: The residual activity was 66%.

Question: And the residual activity [34]?
Answer: Its residual activity is 100%.

Question: And the residual activity [35]?
Answer: The residual activity was 100%.

Question: What about the inhibition [36] of the same compound?
Answer: The inhibition was 0.656%.

Question: What about the inhibition [37] of the same compound?
Answer: The inhibition was -2.98%.
